Laboratory results: ChEMBL document CHEMBL1131172 (J Med Chem, 1998)

Columns and labels:
[1] = target: T1, Dihydrofolate reductase (Rattus norvegicus, UniProt Q920D2)
T1 sequence (Q920D2 whole entry): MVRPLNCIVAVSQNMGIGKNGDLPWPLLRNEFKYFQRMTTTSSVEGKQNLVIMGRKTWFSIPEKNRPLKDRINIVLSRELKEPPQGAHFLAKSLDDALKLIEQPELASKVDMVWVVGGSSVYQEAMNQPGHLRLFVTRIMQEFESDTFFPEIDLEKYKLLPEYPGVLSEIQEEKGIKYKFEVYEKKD
Description: Inhibitory activity against dihydrofolate reductase (DHFR) from rat liver

[2] = target: T2, Bifunctional dihydrofolate reductase-thymidylate synthase (Toxoplasma gondii, UniProt Q07422)
T2 sequence (Q07422 whole entry): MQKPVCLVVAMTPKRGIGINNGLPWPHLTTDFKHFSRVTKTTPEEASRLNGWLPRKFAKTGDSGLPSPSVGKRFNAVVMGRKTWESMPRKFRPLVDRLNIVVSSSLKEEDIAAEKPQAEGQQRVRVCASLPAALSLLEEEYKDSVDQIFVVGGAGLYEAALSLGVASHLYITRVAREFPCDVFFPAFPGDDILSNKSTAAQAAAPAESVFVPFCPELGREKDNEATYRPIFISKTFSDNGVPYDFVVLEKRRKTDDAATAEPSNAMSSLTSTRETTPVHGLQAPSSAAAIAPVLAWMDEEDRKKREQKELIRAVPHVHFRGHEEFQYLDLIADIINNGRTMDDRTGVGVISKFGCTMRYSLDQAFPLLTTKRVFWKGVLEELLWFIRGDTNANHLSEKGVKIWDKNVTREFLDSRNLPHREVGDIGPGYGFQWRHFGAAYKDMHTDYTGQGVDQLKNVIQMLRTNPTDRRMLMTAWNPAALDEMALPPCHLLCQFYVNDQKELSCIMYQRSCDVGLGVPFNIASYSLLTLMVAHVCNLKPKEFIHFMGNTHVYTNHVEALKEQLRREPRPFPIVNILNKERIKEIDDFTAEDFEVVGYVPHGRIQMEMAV
Description: Inhibitory activity against dihydrofolate reductase (DHFR) from Toxoplasma gondii

[3] = target: T3, Dihydrofolate reductase (Pneumocystis carinii, UniProt P16184)
T3 sequence (P16184 whole entry): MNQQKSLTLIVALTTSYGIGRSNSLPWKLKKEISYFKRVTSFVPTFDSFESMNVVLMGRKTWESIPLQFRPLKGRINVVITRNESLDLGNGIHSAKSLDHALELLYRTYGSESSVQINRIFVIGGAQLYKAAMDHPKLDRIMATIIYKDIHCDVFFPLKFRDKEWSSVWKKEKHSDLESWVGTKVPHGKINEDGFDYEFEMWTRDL
Description: Inhibitory activity against dihydrofolate reductase (DHFR) from Pneumocystis carinii

Compound | IC50 [1] [µM] | IC50 [3] [µM] | IC50 [2] [µM]
COc1ccccc1S(=O)(=O)c1ccc2nc(N)nc(N)c2n1 | 1.4 | 3.2 | 0.21
COc1cc(Nc2ccc3nc(N)nc(N)c3n2)cc(OC)c1OC | 3.2 | 25.9 | 2.4
Nc1nc(N)c2nc(Nc3ccc4ccccc4c3)ccc2n1 | 2 | 15 | 1.1
COc1ccc(Sc2ccc3nc(N)nc(N)c3n2)cc1 | 0.075 | 0.7 | 0.045
COc1ccc(OC)c(Nc2ccc3nc(N)nc(N)c3n2)c1 | 3.6 |  | 0.73

Second part, led by results:

IC50 [1] [µM] | IC50 [3] [µM] | Compound | IC50 [2] [µM]
0.88 | 2.7 | COc1ccc(S(=O)(=O)c2ccc3nc(N)nc(N)c3n2)cc1OC | 0.94
3.8 | 90.4 | COc1ccc(Nc2ccc3nc(N)nc(N)c3n2)cc1 | 2.8
2 |  | COc1ccc(S(=O)(=O)c2ccc3nc(N)nc(N)c3n2)cc1 | 1
0.82 |  | Nc1nc(N)c2nc(Nc3ccc(Cl)cc3)ccc2n1 | 0.83
